Entries after “also recorded” stand apart in the source; their conditions may differ.
Tested on: dopaminergic neurons
Test: Drug screening on Parkinson's disease-like basal ganglia-on-a-chip model (6-OHDA induced)
Type: cell-based
Settings: 50 μM L-dopa after Parkinson's disease-like model established with 100 μM 6-OHDA
Text: In order to fabricate a basal ganglia-on-a-chip, SH-SY5Y (ATCC CRL-2266) was used as dopaminergic neurons, and F3-NG1 (provided from professor Hong-Joon Lee at Chung-Ang University) were allowed to differentiate and then used as GABAergic neurons and glutamatergic neurons. Parkinson's disease is caused by the gradual loss of dopaminergic neurons distributed in the substantia nigra. 6-Hydroxydopamine (6-OHDA) causes oxidative stress to induce mitochondrial migration of c-Jun N-terminal kinase (JNK), and the activated JNK after mitochondrial migration causes mitochondrial dysfunction, contributing to apoptosis of dopaminergic neurons, occurring in Parkinson's disease. Based on this, a Parkinson's disease model was developed using 100 μM 6-OHDA.

N[C@@H](Cc1ccc(O)c(O)c1)C(=O)O [L-dopa, L-3,4-dihydroxyphenylalanine]
proliferation of dopaminergic neurons: increase in the proliferation of dopaminergic neurons; also recorded: proliferation of dopaminergic neurons was confirmed

Reference: patent publication US11959909B2, “Basal ganglia-on-chip for screening therapeutic agents for brain and nervous system diseases” (priority 2018, dated 2024)
